Here are results for three molecules from patent US20110281808A1, “Composition and Method for Increasing Pre Workout Thermogenics” (ALLMAX NUTRITION INC., priority 2010, published 2011).

The conditions of series [1]: oral administration of 500 mg hordenine to horses; cited from earlier work.
The conditions of series [2]: after ingestion, horses; cited from earlier work.
Another series relates to central nervous system. The settings on record: cats under anaesthesia; cited from earlier work.
For series [3] the following is noted: humans, from grapefruit juice; cited from earlier work.
Series [4] in a line: oral administration of naringin with Yerba Mate, half life of caffeine and thermogenesis. Format: in vivo. The settings on record: oral administration together with Yerba Mate (source of caffeine).

What is called half-life is how long it takes for the measured level to halve. Consider `CN(C)CCc1ccc(O)cc1` [hordenine, N,N-dimethyl-4-hydroxyphenylethylamine], for which the heart rate result in series [1] is recorded as “slight increase in heart rate”. For the same molecule, the half-life in series [2] is 24 min. In the series with central nervous system, the “muscle tone / spinal cord stimulation” value is on record as “increases muscle tone”.

For the molecule `O=C1C[C@@H](c2ccc(O)cc2)Oc2cc(O)cc(O)c21` [naringenin], the bioavailability result in series [3] is listed as “bioavailable from grapefruit juice”. For the molecule `C[C@@H]1O[C@@H](O[C@H]2[C@H](Oc3cc(O)c4c(c3)O[C@H](c3ccc(O)cc3)CC4=O)O[C@H](CO)[C@@H](O)[C@@H]2O)[C@H](O)[C@H](O)[C@H]1O` [naringin, 4′, 5,7-tri-hydroxyflavonone 7-rhamno-glucoside], the “effect on half life of caffeine and thermogenesis” value in series [4] is on record as “acts synergistically with Yerba Mate”.
